Experimental data reported in patent publication US10479784B2, “Substituted pyrazin-2-amines as inhibitors of ATR kinase” (Vertex Pharmaceuticals Incorporated, priority 2008, dated 2019).

Each compound was assayed against full-length ATR (Homo sapiens (Human), UniProt Q13535) (assay: ATR Inhibition Assay (radioactive-phosphate incorporation)). Settings: read-out: ATR Ki.
Type: biochemical
Summary of the method: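 Ki(app) was derived by non-linear regression of background-corrected initial rates of 33P incorporation into an 800 μM target peptide, read by phosphocellulose filter scintillation counting. Reaction conditions: 5 nM full-length ATR, 10 μM [γ-33P]ATP, pH 7.5 Tris buffer with MgCl2 and DTT, 25 °C, 10-min preincubation, 24 h run.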

full-length ATR, sequence (Q13535 whole entry): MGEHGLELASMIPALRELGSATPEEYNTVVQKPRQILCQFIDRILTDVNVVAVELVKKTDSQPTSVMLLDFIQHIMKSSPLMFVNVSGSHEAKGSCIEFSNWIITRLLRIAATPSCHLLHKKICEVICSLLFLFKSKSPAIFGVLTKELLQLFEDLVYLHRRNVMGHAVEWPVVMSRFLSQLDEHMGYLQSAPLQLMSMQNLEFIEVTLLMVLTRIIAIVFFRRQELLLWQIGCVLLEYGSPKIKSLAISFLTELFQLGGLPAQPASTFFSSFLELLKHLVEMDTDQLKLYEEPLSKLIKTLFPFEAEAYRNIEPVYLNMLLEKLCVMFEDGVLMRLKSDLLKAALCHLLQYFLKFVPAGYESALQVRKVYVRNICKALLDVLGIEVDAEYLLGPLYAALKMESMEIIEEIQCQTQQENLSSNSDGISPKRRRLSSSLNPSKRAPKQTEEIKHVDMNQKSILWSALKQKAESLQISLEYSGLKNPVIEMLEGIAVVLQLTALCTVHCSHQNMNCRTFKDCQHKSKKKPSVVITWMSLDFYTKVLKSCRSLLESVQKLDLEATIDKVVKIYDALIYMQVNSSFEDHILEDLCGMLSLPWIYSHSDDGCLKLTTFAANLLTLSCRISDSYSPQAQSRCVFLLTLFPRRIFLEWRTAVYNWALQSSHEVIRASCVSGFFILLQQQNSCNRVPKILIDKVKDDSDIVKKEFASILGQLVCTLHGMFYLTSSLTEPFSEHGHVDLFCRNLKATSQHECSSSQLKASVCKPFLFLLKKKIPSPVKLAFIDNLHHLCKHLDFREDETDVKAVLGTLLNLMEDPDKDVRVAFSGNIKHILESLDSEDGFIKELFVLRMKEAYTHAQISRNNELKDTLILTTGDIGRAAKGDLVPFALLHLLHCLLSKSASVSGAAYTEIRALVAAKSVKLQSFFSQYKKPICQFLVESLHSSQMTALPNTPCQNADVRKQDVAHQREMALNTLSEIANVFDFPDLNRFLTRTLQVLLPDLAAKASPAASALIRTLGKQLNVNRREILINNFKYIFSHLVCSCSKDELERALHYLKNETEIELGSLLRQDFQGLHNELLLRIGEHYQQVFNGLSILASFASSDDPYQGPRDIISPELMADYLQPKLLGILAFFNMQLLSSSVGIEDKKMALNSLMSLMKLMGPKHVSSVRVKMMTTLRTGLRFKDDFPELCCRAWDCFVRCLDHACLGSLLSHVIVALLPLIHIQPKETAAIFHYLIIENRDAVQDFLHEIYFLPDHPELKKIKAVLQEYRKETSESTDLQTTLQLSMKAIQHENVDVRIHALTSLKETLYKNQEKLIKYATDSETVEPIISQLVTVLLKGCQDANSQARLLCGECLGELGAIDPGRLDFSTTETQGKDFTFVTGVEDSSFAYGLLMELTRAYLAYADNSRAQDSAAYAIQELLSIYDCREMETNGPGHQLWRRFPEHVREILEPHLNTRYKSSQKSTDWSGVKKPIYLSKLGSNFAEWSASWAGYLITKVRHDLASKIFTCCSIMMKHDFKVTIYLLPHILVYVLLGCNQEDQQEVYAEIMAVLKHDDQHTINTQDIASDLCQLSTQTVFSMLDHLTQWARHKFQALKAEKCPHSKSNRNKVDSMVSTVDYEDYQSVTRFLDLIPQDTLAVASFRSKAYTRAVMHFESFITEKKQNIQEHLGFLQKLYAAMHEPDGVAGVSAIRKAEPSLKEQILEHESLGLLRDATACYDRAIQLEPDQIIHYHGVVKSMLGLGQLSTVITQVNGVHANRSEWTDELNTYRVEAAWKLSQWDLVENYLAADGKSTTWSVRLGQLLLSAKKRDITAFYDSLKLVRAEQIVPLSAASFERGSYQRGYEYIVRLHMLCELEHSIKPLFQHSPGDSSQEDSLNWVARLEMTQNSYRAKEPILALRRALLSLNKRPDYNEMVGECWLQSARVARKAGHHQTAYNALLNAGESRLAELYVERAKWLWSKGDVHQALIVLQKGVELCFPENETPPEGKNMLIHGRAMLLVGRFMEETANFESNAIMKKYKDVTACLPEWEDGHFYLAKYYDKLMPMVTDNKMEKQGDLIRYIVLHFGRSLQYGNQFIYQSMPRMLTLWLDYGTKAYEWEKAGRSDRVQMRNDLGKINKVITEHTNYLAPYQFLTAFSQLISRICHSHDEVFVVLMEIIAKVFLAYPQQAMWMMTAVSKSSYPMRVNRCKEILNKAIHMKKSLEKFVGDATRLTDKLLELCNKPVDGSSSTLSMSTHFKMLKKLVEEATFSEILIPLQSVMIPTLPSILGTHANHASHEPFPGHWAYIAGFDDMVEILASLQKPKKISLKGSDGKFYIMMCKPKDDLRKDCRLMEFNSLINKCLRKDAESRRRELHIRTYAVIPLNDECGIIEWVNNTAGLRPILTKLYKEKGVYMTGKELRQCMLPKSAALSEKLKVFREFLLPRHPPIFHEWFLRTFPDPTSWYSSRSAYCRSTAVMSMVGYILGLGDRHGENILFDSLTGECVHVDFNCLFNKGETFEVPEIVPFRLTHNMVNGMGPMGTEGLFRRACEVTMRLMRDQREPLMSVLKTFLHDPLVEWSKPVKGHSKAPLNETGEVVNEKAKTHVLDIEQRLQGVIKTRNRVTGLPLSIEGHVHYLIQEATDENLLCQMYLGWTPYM

| Compound | Ki |
| --- | --- |
| Nc1ncc(-c2cccc(O)c2)nc1-c1nc2ccccc2[nH]1 [Compound I-126, 3-(5-amino-6-(1H-benzo[d]imidazol-2-yl)pyrazin-2-yl)phenol] | 100 to 5000 nM |
| Nc1ncc(-c2ccccc2CO)nc1-c1nc2ccccc2[nH]1 [Compound I-127, (2-(5-amino-6-(1H-benzo[d]imidazol-2-yl)pyrazin-2-yl)phenyl)methanol] | 100 to 5000 nM |
| Nc1ncc(-c2ccc(C(=O)NCCCO)cc2)nc1-c1nc2ccccc2[nH]1 [Compound I-128, 4-(5-amino-6-(1H-benzo[d]imidazol-2-yl)pyrazin-2-yl)-N-(3-hydroxypropyl)benzamide] | 10 to 100 nM |
| N#Cc1ccc(-c2cnc(N)c(-c3nc4ccccc4[nH]3)n2)cc1 [Compound I-129, 4-(5-amino-6-(1H-benzo[d]imidazol-2-yl)pyrazin-2-yl)benzonitrile] | 10 to 100 nM |
| CC(=O)NCc1ccc(-c2cnc(N)c(-c3nc4ccccc4[nH]3)n2)cc1 [Compound I-130, N-(4-(5-amino-6-(1H-benzo[d]imidazol-2-yl)pyrazin-2-yl)benzyl) ethanamide] | 100 to 5000 nM |
| Nc1ncc(-c2ccc(F)c(C(=O)N3CCOCC3)c2)nc1-c1nc2ccccc2[nH]1 [Compound I-131, (5-(5-amino-6-(1H-benzo[d]imidazol-2-yl)pyrazin-2-yl)-2-fluorophenyl) (morpholino)methanone] | 10 to 100 nM |
| Nc1ncc(-c2ccc(C(=O)NCCO)cc2)nc1-c1nc2ccccc2[nH]1 [Compound I-132, 4-(5-amino-6-(1H-benzo[d]imidazol-2-yl)pyrazin-2-yl)-N-(2-hydroxyethyl)benzamide] | 10 to 100 nM |
| Nc1ncc(-c2ccc(C(=O)NCCN3CCCC3)cc2)nc1-c1nc2ccccc2[nH]1 [Compound I-133, 4-(5-amino-6-(1H-benzo[d]imidazol-2-yl)pyrazin-2-yl)-N-(2-(pyrrolidin-1-yl)ethyl)benzamide] | 10 to 100 nM |
| Nc1ncc(-c2ccc(S(=O)(=O)N3CCCC3)cc2)nc1-c1nc2ccccc2[nH]1 [Compound I-134, 3-(1H-benzo[d]imidazol-2-yl)-5-(4-(pyrrolidin-1-ylsulfonyl)phenyl) pyrazin-2-amine] | ≤ 10 nM |
| Nc1ncc(-c2ccc(N3CCOCC3)nc2)nc1-c1nc2ccccc2[nH]1 [Compound I-135, 3-(1H-benzo[d]imidazol-2-yl)-5-(6-morpholinopyridin-3-yl)pyrazin-2-amine] | 100 to 5000 nM |
| Nc1ncc(-c2ccnc(N3CCNCC3)c2)nc1-c1nc2ccccc2[nH]1 [Compound I-136, 3-(1H-benzo[d]imidazol-2-yl)-5-(2-(piperazin-1-yl)pyridin-4-yl)pyrazin-2-amine] | 100 to 5000 nM |
| Nc1ncc(-c2ccc(O)nc2)nc1-c1nc2ccccc2[nH]1 [Compound I-137, 5-(5-amino-6-(1H-benzo[d]imidazol-2-yl)pyrazin-2-yl)pyridin-2-ol] | 10 to 100 nM |
| Nc1ncc(-c2cccnc2)nc1-c1nnc(-c2ccccc2)[nH]1 [Compound I-138, 3-(5-phenyl-4H-1,2,4-triazol-3-yl)-5-(pyridin-3-yl)pyrazin-2-amine] | 10 to 100 nM |
| NCc1ccc(-c2nnc(-c3nc(-c4cccnc4)cnc3N)[nH]2)cc1 [Compound I-139, 3-(5-(4-(aminomethyl)phenyl)-4H-1,2,4-triazol-3-yl)-5-(pyridin-3-yl)pyrazin-2-amine] | 10 to 100 nM |
| Nc1cccc(-c2nnc(-c3nc(-c4cccnc4)cnc3N)[nH]2)c1 [Compound I-140, 3-(5-(3-aminophenyl)-4H-1,2,4-triazol-3-yl)-5-(pyridin-3-yl)pyrazin-2-amine] | 10 to 100 nM |
| Cc1cccc(-c2nnc(-c3nc(-c4cccnc4)cnc3N)[nH]2)c1 [Compound I-141, 5-(pyridin-3-yl)-3-(5-m-tolyl-4H-1,2,4-triazol-3-yl)pyrazin-2-amine] | 10 to 100 nM |
| Nc1ncc(-c2cccnc2)nc1-c1nnc(-c2cccs2)[nH]1 [Compound I-142, 5-(pyridin-3-yl)-3-(5-(thiophen-2-yl)-4H-1,2,4-triazol-3-yl)pyrazin-2-amine] | 10 to 100 nM |
| NCc1cccc(-c2nnc(-c3nc(-c4cccnc4)cnc3N)[nH]2)c1 [Compound I-143, 3-(5-(3-(aminomethyl)phenyl)-4H-1,2,4-triazol-3-yl)-5-(pyridin-3-yl)pyrazin-2-amine] | 10 to 100 nM |
| CS(=O)(=O)c1ccc(-c2cnc(N)c(-c3noc(-c4ccccc4)n3)n2)cc1 [Compound I-144, 5-(4-(methylsulfonyl)phenyl)-3-(5-phenyl-1,2,4-oxadiazol-3-yl)pyrazin-2-amine] | ≤ 10 nM |
| Nc1ncc(-c2cccnc2)nc1-c1noc(-c2ccccc2)n1 [Compound I-145] | 10 to 100 nM |
| CS(=O)(=O)c1ccc(-c2cnc(N)c(-c3nc4ccccc4s3)n2)cc1 [Compound I-146, 3-(benzo[d]thiazol-2-yl)-5-(4-(methylsulfonyl)phenyl)pyrazin-2-amine] | 10 to 100 nM |
| Cc1ccc2nc(-c3nc(-c4ccc(C(=O)N5CCCN(C(=O)OC(C)(C)C)CC5)cc4)cnc3N)[nH]c2c1 [Compound I-147, tert-butyl 4-(4-(5-amino-6-(6-methyl-1H-benzo[d]imidazol-2-yl)pyrazin-2-yl)phenylcarbonyl)-1,4-diazepane-1-carboxylate] | ≤ 10 nM |
| Cc1ccc2nc(-c3nc(-c4ccc(C(=O)N5CCC(N(C)C)CC5)cc4)cnc3N)[nH]c2c1 [Compound I-148, (4-(5-amino-6-(6-methyl-1H-benzo[d]imidazol-2-yl)pyrazin-2-yl)phenyl)(4-(dimethylamino)piperidin-1-yl)methanone] | 10 to 100 nM |
| Cc1ccc2nc(-c3nc(-c4ccc(C(=O)N5CCNCC5)cc4)cnc3N)[nH]c2c1 [Compound I-149, (4-(5-amino-6-(6-methyl-1H-benzo[d]imidazol-2-yl)pyrazin-2-yl)phenyl)(piperazin-1-yl)methanone] | 10 to 100 nM |
| Cc1ccc2nc(-c3nc(-c4ccc(C(=O)N5CCN(C)CC5)cc4)cnc3N)[nH]c2c1 [Compound I-150, (4-(5-amino-6-(6-methyl-1H-benzo[d]imidazol-2-yl)pyrazin-2-yl)phenyl)(4-methylpiperazin-1-yl)methanone] | 10 to 100 nM |
| Cc1ccc2nc(-c3nc(-c4ccc(C(=O)N5CCCN(C)CC5)cc4)cnc3N)[nH]c2c1 [Compound I-151, (4-(5-amino-6-(6-methyl-1H-benzo[d]imidazol-2-yl)pyrazin-2-yl)phenyl)(4-methyl-1,4-diazepan-1-yl)methanone] | 10 to 100 nM |

| Compound | Ki |
| --- | --- |
| Nc1ncc(-c2ccc(C(=O)NCCN3CCCC3)cc2)nc1-c1nc2ccccc2[nH]1 [Compound I-152, 4-(5-amino-6-(1H-benzo[d]imidazol-2-yl)pyrazin-2-yl)-N-(2-(pyrrolidin-1-yl)ethyl)benzamide] | 10 to 100 nM |
| Cc1ccc2nc(-c3nc(-c4ccc(C(=O)N5CCCNCC5)cc4)cnc3N)[nH]c2c1 [Compound I-153, (4-(5-amino-6-(6-methyl-1H-benzo[d]imidazol-2-yl)pyrazin-2-yl)phenyl) (1,4-diazepan-1-yl)methanone] | 10 to 100 nM |
| N#Cc1cc(C(=O)N2CCCNCC2)ccc1-c1cnc(N)c(C(=O)Nc2nc3ccccc3[nH]2)n1 [Compound V-2] | ≤ 10 nM |
| N#Cc1cnccc1-c1cnc(N)c(C(=O)Nc2nc3ccccc3[nH]2)n1 [Compound V-3] | ≤ 10 nM |
| Nc1ncc(-c2ccc(C(=O)N3CCCNCC3)cc2)nc1C(=O)Nc1ccc2cn[nH]c2c1 [Compound V-4] | 10 to 100 nM |
| Nc1ncc(-c2ccc(C(=O)N3CCCNCC3)cc2)nc1C(=O)Nc1nc2ccccc2o1 [Compound V-5] | 10 to 100 nM |
| Nc1ncc(-c2ccc(C(=O)N3CCCNCC3)cc2)nc1C(=O)Nc1cc2ccccc2[nH]1 [Compound V-6] | 100 to 5000 nM |
| Cn1c(NC(=O)c2nc(-c3ccc(C(=O)N4CCCNCC4)cc3)cnc2N)nc2ccccc21 [Compound V-7] | 100 to 5000 nM |
| Nc1ncc(-c2ccc(C(=O)N3CCCNCC3)cc2)nc1C(=O)Nc1n[nH]c2ccccc12 [Compound V-8] | ≤ 10 nM |
| Nc1ncc(-c2ccc(C(=O)N3CCCNCC3)cc2)nc1C(=O)Nc1nc2ccccc2s1 [Compound V-9] | 10 to 100 nM |
| Nc1ncc(-c2ccc(C(=O)N3CCCNCC3)cc2)nc1C(=O)Nc1nc2ccccc2[nH]1 [Compound V-10] | ≤ 10 nM |
| CS(=O)(=O)c1ccc(-c2cnc(N)c(C(=O)Nc3nc4ccccc4[nH]3)n2)cc1 [Compound V-11] | ≤ 10 nM |
| CS(=O)(=O)c1ccc(-c2cnc(N)c(C(=O)Nc3ccc4cc[nH]c4n3)n2)cc1 [Compound V-12] | ≤ 10 nM |
| CS(=O)(=O)c1ccc(-c2cnc(N)c(C(=O)Nc3n[nH]c4ccccc34)n2)cc1 [Compound V-13] | 100 to 5000 nM |
| Nc1ncc(-c2cccnc2)nc1C(=O)Nc1cccn2ncnc12 [Compound V-14] | 100 to 5000 nM |
| Nc1ncc(-c2cccnc2)nc1C(=O)Nc1cccc2cc[nH]c12 [Compound V-15] | 100 to 5000 nM |
| Nc1ncc(-c2cccnc2)nc1C(=O)Nc1ccc2cc[nH]c2c1 [Compound V-16] | 10 to 100 nM |
| Nc1ncc(-c2cccnc2)nc1C(=O)Nc1ccc2[nH]ccc2c1 [Compound V-17] | 10 to 100 nM |
| CS(=O)(=O)c1ccc(-c2cnc(N)c(C(=O)Nc3n[nH]c4ccccc34)n2)cc1 [Compound V-18] | 100 to 5000 nM |
| Cn1c(NC(=O)c2nc(-c3ccc(C(=O)N4CCCNCC4)cc3)cnc2N)nc2ccccc21 [Compound V-25] | 100 to 5000 nM |
| Nc1ncc(-c2ccc(C(=O)N3CCCNCC3)cc2)nc1C(=O)Nc1cc2ccccc2[nH]1 [Compound V-26] | 100 to 5000 nM |
| Nc1ncc(-c2ccc(C(=O)N3CCCNCC3)cc2)nc1C(=O)Nc1ccc2c(c1)NNC2 [Compound V-28] | 10 to 100 nM |
| Nc1ncc(-c2ccc(C(=O)N3CCCNCC3)cc2)nc1-c1nnc(-c2ccccc2)o1 [IA-1] | ≤ 10 nM |
| CN(C)C1CCN(C(=O)c2ccc(-c3cnc(N)c(-c4nnc(-c5ccccc5)o4)n3)cc2F)CC1 [IA-4] | ≤ 10 nM |
| CN(C)[C@@H]1CCN(C(=O)c2ccc(-c3cnc(N)c(-c4nnc(-c5ccccc5)o4)n3)cc2F)C1 [IA-5] | ≤ 10 nM |
| Nc1ncc(-c2ccc(C(=O)N3CCCNCC3)c(F)c2)nc1-c1nnc(-c2ccccc2)o1 [IA-6] | ≤ 10 nM |
